Laboratory results taken from patent publication US20090093473A1, “Spiro-benzimidazoles as inhibitors of gastric acid secretion” (priority 2005, published 2009).

Columns and labels:
[1] = test system: pentagastrin-stimulated acid secretion of the perfused rat stomach; experiment: Secretion-inhibiting action on the perfused rat stomach (pentagastrin-stimulated acid secretion); type: in vivo; settings: intraduodenal, anesthetized CD rat, dose 1 μmol/kg i.d.
From the text: Testing of the Secretion-Inhibiting Action on the Perfused Rat Stomach
In Table A which follows, the influence of the compounds of the formula 1 according to the invention on the pentagastrin-stimulated acid secretion of the perfused rat stomach after intraduodenal administration in vivo is shown.
The abdomen of anesthetized rats (CD rat, female, 200-250 g; 1.5 g/kg i.m. urethane) was opened after tracheotomy by a median upper abdominal incision and a PVC catheter was fixed transorally in the esophagus and another via the pylorus such that the ends of the tubes just projected into the gastric lumen. The catheter leading from the pylorus led outward into the right abdominal wall through a side opening.
After thorough rinsing (about 50-100 ml), warm (37° C.) physiological NaCl solution was conbinuously passed through the stomach (0.5 ml/min, pH 6.8-6.9; Braun-Unita I). The pH (pH meter 632, glass electrode EA 147; φ=5 mm, Metrohm) and, by titration with a freshly prepared 0.01N NaOH solution to pH 7 (Dosimat 665 Metrohm), the secreted HCl were determined in the effluent in each case collected at an interval of 15 minutes.
The gastric secretion was stimulated by continuous infusion of 1 μg/kg (=1.65 mllh) of i.v. pentagastrin (left femoral vein) about 30 min after the end of the operation (i.e. after determination of 2 preliminary fractions). The substances to be tested were administered intraduodenally in a 2.5 ml/kg liquid volume 60 min after the start of the continuous pentagastrin infusion. The body temperature of the animals was kept at a constant 37.8-38° C. by infrared irradiation and heat pads (automatic, stepless control by means of a rectal temperature sensor).

melting point | Structure (SMILES) | inhibition in vivo at 1 µmol/kg [1]
224 to 225 °C | Cc1nc2c3c(c(C(=O)NC[C@H](C)O)cc2n1C)CCC1(Cc2ccccc2C1)N3 [Example 20, N-[(2S)-2-hydroxypropyl]-2,3-dimethyl-1′,3,3′,6,7,9-hexahydrospiro[imidazo[4,5-h]-quinoline-8,2′-indene]-5-carboxamide] | –
160 to 161 °C | COCCN(C)C(=O)c1cc2c(nc(C)n2C)c2c1CCC1(Cc3ccccc3C1)N2 [Example 21, N-(2-methoxyethyl)-N,2,3-trimethyl-1′,3,3′,6,7,9-hexahydrospiro[imidazo[4,5-h]quinoline-8,2′-indene]-5-carboxamide] | > 80%
263 to 264 °C | Cc1nc2c3c(c(C(=O)N4CCCC4)cc2n1C)CCC1(Cc2ccccc2C1)N3 [Example 22, 2,3-dimethyl-5-(pyrrolidin-1-ylcarbonyl)-1′,3,3′,6,7,9-hexahydrospiro[imidazo[4,5-h]-quinoline-8,2′-indene]] | > 80%
237 to 238 °C | Cc1nc2c3c(c(C(=O)NCCCO)cc2n1C)CCC1(Cc2ccccc2C1)N3 [Example 26, N-(3-hydroxypropyl)-2,3-dimethyl-1′,3,3′,6,7,9-hexahydrospiro[imidazo[4,5-h]quinoline-8,2′-indene]-5-carboxamide] | –
321 to 324 °C | CNC(=O)c1cc2c(nc(C)n2C)c2c1CCC1(Cc3ccccc3C1)N2.CS(=O)(=O)O [Example 28, N,2,3-Trimethyl-1′,3,3′,6,7,9-hexahydrospiro[imidazo[4,5-h]quinoline-8,2′-indene]-5-carboxamide methanesulphonate] | –
261 to 263 °C | CNC(=O)c1cc2c(nc(C)n2C)c2c1CCC1(Cc3ccccc3C1)N2.O=C(O)CC(=O)O [Example 30, N,2,3-Trimethyl-1′,3,3′,6,7,9-hexahydrospiro[imidazo[4,5-h]quinoline-8,2′-indene]-5-carboxamide malonate] | –
180 to 181 °C | CCOCCNC(=O)c1cc2c(nc(C)n2C)c2c1CCC1(Cc3ccccc3C1)N2 [Example 31, N-(2-ethoxyethyl)-2,3-dimethyl-1′,3,3′,6,7,9-hexahydrospiro[imidazo[4,5-h]quinoline-8,2′-indene]-5-carboxamide] | –
223 to 224 °C | CCNC(=O)c1cc2c(nc(C)n2C)c2c1CCC1(Cc3ccccc3C1)N2 [Example 32, N-ethyl-2,3-dimethyl-1′,3,3′,6,7,9-hexahydrospiro[imidazo[4,5-h]quinoline-8,2′-indene]-5-carboxamide] | –
191 to 192 °C | COCCNC(=O)c1cc2c(nc(C)n2C)c2c1CCC1(Cc3ccccc3C1)N2.O=C(O)/C=C\C(=O)O [Example 33, N-(2-methoxyethyl)-2,3-dimethyl-1′,3,3′,6,7,9-hexahydrospiro[imidazo[4,5-h]quinoline-8,2′-indene]-5-carboxamide maleate] | –
176 to 177 °C | COCCNC(=O)c1cc2c(nc(C)n2C)c2c1CCC1(Cc3ccccc3C1)N2.O=C(O)CC(=O)O [Example 34, N-(2-methoxyethyl)-2,3-dimethyl-1′,3,3′,6,7,9-hexahydrospiro[imidazo[4,5-h]quinoline-8,2′-indene]-5-carboxamide malonate] | –
242 to 243 °C | Cc1nc2c3c(c(C(=O)NC4CC4)cc2n1C)CCC1(Cc2ccccc2C1)N3.O=C(O)C(=O)O [Example 36, N-cyclopropyl-2,3-dimethyl-1′,3,3′,6,7,9-hexahydrospiro[imidazo[4,5-h]quinoline-8,2′-indene]-5-carboxamide oxalate] | –
308 to 309 °C | CS(=O)(=O)O.Cc1nc2c3c(c(C(=O)NC4CC4)cc2n1C)CCC1(Cc2ccccc2C1)N3 [Example 37, N-cyclopropyl-2,3-dimethyl-1′,3,3′,6,7,9-hexahydrospiro[imidazo[4,5-h]quinoline-8,2′-indene]-5-carboxamide methanesulphonate] | –

Continued, compound first:

Structure (SMILES) | melting point | inhibition in vivo at 1 µmol/kg [1]
CNC(=O)c1cc2c(nc(C)n2C)c2c1CCC1(Cc3ccccc3C1)N2.Cl | 309 to 311 °C | –
COCCNC(=O)c1cc2c(nc(C)n2C)c2c1CCC1(Cc3ccccc3C1)N2.Cl | 294 to 295 °C | –
CCOC(=O)c1cc2c(nc(C)n2C)c2c1CCC1(Cc3ccccc3C1)N2 [Example 1, Ethyl 2,3-dimethyl-1′,3,3′,6,7,9-hexahydrospiro[imidazo[4,5-h]quinoline-8,2′-indene]-5-carboxylate] | 167 to 168 °C | –
C=CCn1c(C)nc2c3c(c(C(=O)OC)cc21)CCC1(Cc2ccccc2C1)N3 [Example 2, Methyl 3-allyl-2-methyl-1′,3,3′,6,7,9-hexahydrospiro[imidazo[4,5-h]quinoline-8,2′-indene]-5-carboxylate] | 142 to 142.5 °C | –
C=CCn1c(C)nc2c3c(c(C(=O)OCC)cc21)CCC1(Cc2ccccc2C1)N3 [Example 3, Ethyl 3-allyl-2-methyl-1′,3,3′,6,7,9-hexahydrospiro[imidazo[4,5-h]quinoline-8,2′-indene]-5-carboxylate] | 150 °C | –
CNC(=O)c1cc2c(nc(C)n2C)c2c1CCC1(Cc3ccccc3C1)N2 [Example 4, N,2,3-Trimethyl-1′,3,3′,6,7,9-hexahydrospiro[imidazo[4,5-h]quinoline-8,2′-indene]-5-carboxamide] | 237 to 238 °C | > 80%
Cc1nc2c3c(c(CO)cc2n1C)CCC1(Cc2ccccc2C1)N3 [Example 6, (2,3-Dimethyl-1′,3,3′,6,7,9-hexahydrospiro[imidazo[4,5-h]quinoline-8,2′-inden]-5-yl)-methanol] | 272 to 274 °C | –
CNC(=O)c1cc2[nH]c(C)nc2c2c1CCC1(Cc3ccccc3C1)N2 [Example 9, N,2-dimethyl-1′,3,3′,6,7,9-hexahydrospiro[imidazo[4,5-h]quinoline-8,2′-indene]-5-carboxamide] | 240 to 241 °C | –
Cc1nc2c3c(c(C(=O)N(C)C)cc2[nH]1)CCC1(Cc2ccccc2C1)N3 [Example 10, N,N,2-Trimethyl-1′,3,3′,6,7,9-hexahydrospiro[imidazo[4,5-h]quinoline-8,2′-indene]-5-carboxamide] | 183 °C | –
Cc1nc2c3c(c(C(=O)N(C)C)cc2n1C)CCC1(Cc2ccccc2C1)N3 [Example 11, N,N,2,3-tetramethyl-1′,3,3′,6,7,9-hexahydrospiro[imidazo[4,5-h]quinoline-8,2′-indene]-5-carboxamide] | 178 to 179 °C | > 80%
Cc1nc2c3c(c(C(=O)N(C)CCO)cc2n1C)CCC1(Cc2ccccc2C1)N3 [Example 12, N-(2-hydroxyethyl)-N,2,3-trimethyl-1′,3,3′,6,7,9-hexahydrospiro[imidazo[4,5-h]quinoline-8,2′-indene]-5-carboxamide] | 194 to 195 °C | –
Cc1nc2c3c(c(C(=O)N4CC(O)C4)cc2n1C)CCC1(Cc2ccccc2C1)N3 [Example 13, 1-[(2,3-dimethyl-1′,3,3′,6,7,9-hexahydrospiro[imidazo[4,5-h]quinoline-8,2′-inden]-5-yl)-carbonyl]azetidin-3-ol] | 171 to 172 °C | –
CC(=O)CNC(=O)c1cc2c(nc(C)n2C)c2c1CCC1(Cc3ccccc3C1)N2 [Example 14, 2,3-dimethyl-N-(2-oxopropyl)-1′,3,3′,6,7,9-hexahydrospiro[imidazo[4,5-h]quinoline-8,2′-indene]-5-carboxamide] | 222 to 223 °C | > 80%
Cc1nc2c3c(c(C(=O)N4CC(F)C4)cc2n1C)CCC1(Cc2ccccc2C1)N3 [Example 15, 5-[(3-fluoroazetidin-1-yl)carbonyl]-2,3-dimethyl-1′,3,3′,6,7,9-hexahydrospiro[imidazo[4,5-h]quinoline-8,2′-indene]] | 259 to 260 °C | > 80%
COCCNC(=O)c1cc2c(nc(C)n2C)c2c1CCC1(Cc3ccccc3C1)N2 [Example 16, N-(2-methoxyethyl)-2,3-dimethyl-1′,3,3′,6,7,9-hexahydrospiro[imidazo[4,5-h]quinoline-8,2′-indene]-5-carboxamide] | 186 to 187 °C | > 80%
Cc1nc2c3c(c(C(=O)NCCO)cc2n1C)CCC1(Cc2ccccc2C1)N3 [Example 17, N-(2-hydroxyethyl)-2,3-dimethyl-1′,3,3′,6,7,9-hexahydrospiro[imidazo[4,5-h]quinoline-8,2′-indene]-5-carboxamide] | 167 to 168 °C | –
Cc1nc2c3c(c(C(N)=O)cc2n1C)CCC1(Cc2ccccc2C1)N3 [Example 18, 2,3-dimethyl-1′,3,3′,6,7,9-hexahydrospiro[imidazo[4,5-h]quinoline-8,2′-indene]-5-carboxamide] | 272 to 273 °C | > 80%
Cc1nc2c3c(c(C(=O)N(C)C[C@H](C)O)cc2n1C)CCC1(Cc2ccccc2C1)N3 [Example 19, N-[(2S)-2-hydroxypropyl]-N,2,3-trimethyl-1′,3,3′,6,7,9-hexahydrospiro[imidazo[4,5-h]-quinoline-8,2′-indene]-5-carboxamide] | 258 to 259 °C | –
